Reference: PubChem BioAssay (NCI)
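These data come from cells grown in 96-well plates and exposed to compound for 48 hours at five concentrations. TGI marks complete inhibition of growth.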

What was measured:
Assay in all cases: NCI anticancer screen, dose series, 48 h
MDA-MB-231 breast = system: MDA-MB-231 breast
U251 CNS = system: U251 CNS
HCC-2998 colon = system: HCC-2998 colon
HCT-116 colon = system: HCT-116 colon
LOX IMVI melanoma = system: LOX IMVI melanoma
SK-MEL-5 melanoma = system: SK-MEL-5 melanoma
HOP-18 NSCLC = system: HOP-18 NSCLC
KM20L2 colon = system: KM20L2 colon
NCI/ADR-RES ovarian = system: NCI/ADR-RES ovarian
SW-620 colon = system: SW-620 colon

Compound | TGI (MDA-MB-231 breast) [µM] | TGI (U251 CNS) [µM] | TGI (HCC-2998 colon) [µM] | TGI (HCT-116 colon) [µM] | TGI (LOX IMVI melanoma) [µM] | TGI (SK-MEL-5 melanoma) [µM] | TGI (HOP-18 NSCLC) [µM] | TGI (KM20L2 colon) [µM] | TGI (NCI/ADR-RES ovarian) [µM] | TGI (SW-620 colon) [µM]
C/C(=N\N=C(N)N)C(CN(C)C)C(c1ccccc1)c1c(O)c2ccccc2oc1=O (stereo not given) | > 100 | > 100 | > 100 | > 100 | > 100 | > 100 | > 100 | > 100 | > 100 | > 100
CS(=O)(=O)OCCN(CCOS(C)(=O)=O)c1ccc(C=O)cc1 | 67.6 | 45.7 | 8.36 | > 100 | 21.1 | 29.1 | 48.8 | 17.8 | > 80.8 | 68.8
CC1(C)CC(Nc2ccc(Nc3ccccc3)cc2)CC(C)(C)N1 | 32.4 | 40.1 | 32.7 | 62.3 | 43.1 | 30.5 | > 100 | > 78.6 | 66.9 | 49
